These results are taken from patent US20150376099A1, “New 3,3',5,5'-Tetraisopropyl-4,4'-Diphenol Crystal Form And Preparation Method Thereof” (XI' AN LIBANG PHARMACEUTICAL CO., LTD., priority 2013, published 2015).

The subject of data set [1] is kainate-induced excitotoxicity. As to conditions: cited from earlier work.
Data set [2] concerns NMDA receptors. As to conditions: cited from earlier work.
The test system of data set [3] is brain. Particulars: cited from earlier work.
For data set [4] the following is noted: compared with propofol; cited from earlier work.
Data set [5] concerns GABA. As to conditions: cited from earlier work.
Data set [6] concerns GAGA receptor. As to conditions: cited from earlier work.
Data set [7] has as its system slow Ca^2+ channel. Particulars: cited from earlier work.
Data set [8] in a line: Stability of crystal forms under strong light. Type of data set: physicochemical. Particulars: light stable box, illumination of 4500lux, 7 days. An excerpt:
(§1) As compared with the solvate, the anhydrate and hydrate are more useful as pharmaceutical crystal forms. The relative stability of the crystal form is an important indicator to be investigated in the research of drug polymorph, and the stability under high temperature, high humidity, strong light, and in water is investigated for the crystal forms I and II.
The crystal forms I and II prepared in Example 6 and 15 were respectively placed in a light stable box with illumination of 4500lux for 7 days and then characterized, and the result was shown in Table 4.

Data set [9] can be described thus: Stability of crystal forms under high humidity. It is filed as physicochemical. The procedure: as §1
The crystal forms I and II prepared in Example 6 and 15 were respectively placed in a constant temperature and humidity chamber at 80° C. and 75% RH for 7 days and then characterized, and the result was shown in Table 4.

Data set [10] is described as follows: Stability of crystal forms suspended in water. It is filed as physicochemical. Particulars: suspended in water at 25° C. for 7 days. The procedure: as §1
The crystal forms I and II prepared in Example 6 and 15 were placed in water at 25° C. and suspended for 7 days and then characterized, and the result was shown in Table 4.

A short description of data set [11]: Stability of crystal forms under high temperature. It is filed as physicochemical. Particulars: ventilated oven at 80° C. for 7 days, then characterized. The procedure: as §1
The crystal forms I and II prepared in Example 6 and 15 were respectively placed in a ventilated oven at 80° C. for 7 days and then characterized, and the result was shown in Table 4.

SMILES strings stand for the structures.

Turning to `CC(C)c1cc(-c2cc(C(C)C)c(O)c(C(C)C)c2)cc(C(C)C)c1O` [3,3′,5,5′-tetraisopropyl-4,4′-diphenol], in data set [1], the “Effect on kainate-induced excitotoxicity” value is listed as “protective effect”. Besides, in data set [2], the “Antagonism of NMDA receptors” value is on record as “could antagonize NMDA receptors”. The “Protective effect of brain” value in data set [3] is “strong protective effect of brain”. In [4], the Antioxidant effect result is “significantly stronger than propofol”. Further, the GABA agonistic effect result in data set [5] is given as “GABA agonistic effect”. Also, the “Affinity for the GAGA receptor” value in data set [6] is given as “strong affinity”. In addition, the “Ca^2+ influx in the slow Ca^2+ channel” value in data set [7] is on record as “regulate Ca^2+ influx”.

Regarding `CC(C)c1cc(-c2cc(C(C)C)c(O)c(C(C)C)c2)cc(C(C)C)c1O` [crystal form I, 3,3′,5,5′-tetraisopropyl-4,4′-diphenol], the “Crystal form found after Light” value in [8] is given as “good stability”.

Turning to `CC(C)c1cc(-c2cc(C(C)C)c(O)c(C(C)C)c2)cc(C(C)C)c1O` [crystal form II, 3,3′,5,5′-tetraisopropyl-4,4′-diphenol], the “Stability under high humidity conditions” value in data set [9] (80° C. and 75% RH for 7 days (as printed in text)) is listed as “tendency of converting to the crystal form I”. Also, the “Crystal form found after High humidity (40° C., 75% RH)” value in data set [9] (constant temperature and humidity chamber, 40° C., 75% RH, 7 days) is “I (few), II”. Further, the “Crystal form found after Water” value in data set [10] is listed as “tendency of converting to the crystal form I”; in data set [10] (listed as II) it was “I (few), II”. Moreover, the “Crystal form found after High temperature (80° C.)” value in [11] is on record as “tendency of converting to the crystal form I”; in [11] (listed as II), “I, II”.
